# Laboratory results as given in EP4509511A1, “SUBSTITUTED SPIRO-ISOXAZOLINYL LACTAMS, SALTS THEREOF AND THEIR USE AS HERBICIDALLY ACTIVE SUBSTANCES” (Bayer Aktiengesellschaft, priority 2023, dated 2025).
# Columns and labels:
# [1] = tested on: ORYZA; assay: Pre-emergence effects on crop plants; assay type: in vivo, Oryza sativa; conditions: crop plant
# Excerpt: (§1) Seeds of mono- and dicotyledonous weed plants and crop plants were sown, in plastic or organic planting pots, in sandy loam and covered with soil. The compounds according to the invention, formulated in the form of wettable powders (WP) or as emulsifiable concentrates (EC), were applied to the surface of the covering soil as aqueous suspension or emulsion, with the addition of 0.5% of an additive, at an application rate of 600 1 of water/ha (converted). Following treatment, the pots were placed in a greenhouse and kept under optimum growth conditions for the test plants. The visual grading of the damage to the test plants was carried out after ca. 3 weeks in comparison to untreated controls (herbicidal effect in percent (%): 100% effect = plants have died off, 0% effect = as control plants). Tables D1 to D5 below show the effects of various compounds of the general formula (I) according to Table 1 on various crop plants and an application rate corresponding to 320 g/ha or below obtained by the experimental procedure mentioned above in Biological Examples, Section C. Table […]: pre-emergence activity at 320g/ha against ZEAMX in %
# [2] = tested on: DIGSA; assay: Herbicidal pre-emergence action - Part II; assay type: in vivo, Digitaria sanguinalis
# Excerpt: (§2) Seeds of mono- and dicotyledonous weed plants and crop plants were sown, in plastic or organic planting pots, in sandy loam and covered with soil. The compounds according to the invention, formulated in the form of wettable powders (WP) or as emulsifiable concentrates (EC), were applied to the surface of the covering soil as aqueous suspension or emulsion, with the addition of 0.5% of an additive, at an application rate of 600 1 of water/ha (converted). Following treatment, the pots were placed in a greenhouse and kept under optimum growth conditions for the test plants. The visual grading of the damage to the test plants was carried out after ca. 3 weeks in comparison to untreated controls (herbicidal effect in percent (%): 100% effect = plants have died off, 0% effect = as control plants). Tables C1 to C12 below show the effects of selected compounds of the general formula (I) according to table 1 on various harmful plants and an application rate corresponding to 320 g/ha or below obtained by the experimental procedure mentioned above. Table C1: pre-emergence activity at 320g/ha against ABUTH in %
# [3] = tested on: ECHCG; assay: Herbicidal pre-emergence action - Part I; assay type: in vivo, Echinochloa crus-galli; conditions: visual grading after ca. 3 weeks vs untreated controls
# Procedure, shortened: (§3)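 In this greenhouse pre-emergence test, formulated compounds with 0.5% additive were applied at 1280 g/ha or below onto the soil covering sown weed seeds in sandy loam. After roughly three weeks, plant damage was scored by eye in percent versus untreated controls.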
# [4] = tested on: AMARE; assay: Herbicidal pre-emergence action - Part II; assay type: in vivo, Amaranthus retroflexus; conditions: visual grading after ca. 3 weeks vs untreated controls
# Excerpt: as §2
# [5] = tested on: ZEAMX; assay: Post-emergence effects on crop plants; assay type: in vivo, Zea mays; conditions: crop plant
# Procedure, shortened: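 Crop plants were grown in sandy loam in the greenhouse and sprayed at the single-leaf stage, 2–3 weeks after sowing, with WP or EC formulations plus 0.5% additive in 600 l water/ha, at rates of 320 g/ha or below. Injury was scored visually about 3 weeks later as % effect versus untreated controls (100% = plants dead).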
# [6] = tested on: TRZAS; assay: Pre-emergence effects on crop plants; assay type: in vivo, Triticum aestivum; conditions: crop plant
# Excerpt: as §1
# [7] = tested on: SETVI; assay: Herbicidal pre-emergence action - Part I; assay type: in vivo, Setaria viridis; conditions: visual grading after ca. 3 weeks vs untreated controls
# Procedure, shortened: as §3
# [8] = tested on: ECHCG; assay: Herbicidal pre-emergence action - Part II; assay type: in vivo, Echinochloa crus-galli
# Excerpt: as §2
# [9] = tested on: KCHSC; assay: Herbicidal post-emergence action - Part I; assay type: in vivo, Kochia scoparia; conditions: one-leaf stage, rated visually after about 3 weeks vs untreated controls
# Procedure, shortened: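 Activity was scored visually as % damage (100% = dead, 0% = like untreated) about 3 weeks after treatment. Plants at the one-leaf stage, 2-3 weeks old, were sprayed with WP/EC formulations plus 0.5% additive (600 L/ha water, up to 1280 g/ha). Plants were grown in sandy loam in a greenhouse.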
# [10] = tested on: ORYZA; assay: Post-emergence effects on crop plants; assay type: in vivo, Oryza sativa; conditions: crop plant
# Excerpt: (§4) Seeds of mono- and dicotyledonous weed plants and crop plants were sown, in plastic or organic planting pots, in sandy loam, covered with soil and grown in a greenhouse under controlled growth conditions. 2 to 3 weeks after sowing, the test plants were sprayed in the single-leaf stage. The compounds according to the invention, formulated in form of wettable powders (WP) or as emulsifiable concentrates (EC), were sprayed onto the green plant parts as aqueous suspension or emulsion, with the addition of 0.5% of an additive, at an application rate of 600 1 of water/ha (converted). The test plants were placed in the greenhouse for ca. 3 weeks under optimum growth conditions, and then the effect of the preparations was assessed visually in comparison with untreated controls (herbicidal effect in percent (%): 100% effect = plants have died off, 0% effect = as control plants). Tables F1 to F5 below show the effects of selected compounds of the general formula (I) according to table 1 on various crop plants and an application rate corresponding to 320 g/ha or below obtained by the experimental procedure mentioned above. Table […]: post-emergence activity at 5g/ha against ZEAMX in %
# [11] = tested on: GLXMA; assay: Post-emergence effects on crop plants; assay type: in vivo, Glycine max; conditions: crop plant
# Excerpt: as §4
compound,measurement,setting,value
Cc1ccsc1C1=NOC2(CCCN(Cc3c(F)cccc3F)C2=O)C1 (racemic) [Compound I-2],pre-emergence activity against ORYZA,"[1]; 80 g/ha, Table D3b",0%
same,pre-emergence activity against DIGSA,"[2]; 80 g/ha, Table C5b",90%
same,pre-emergence activity against DIGSA,"[2]; 320 g/ha, Table C5a",100%
same,pre-emergence activity at 320g/ha against ECHCG in %,[3],100%
same,pre-emergence activity at 1280g/ha against ECHCG in %,[3],100%
same,pre-emergence activity at 320g/ha against AMARE in %,[4],90%
same,post-emergence activity against ZEAMX,"[5]; 80 g/ha, Table F1c",0%
same,post-emergence activity against ZEAMX,"[5]; 320 g/ha, Table F1d",20%
same,pre-emergence activity against TRZAS,"[6]; 80 g/ha, Table D2b",0%
same,pre-emergence activity at 80g/ha and against SETVI in %,[7]; 80 g/ha,100%
same,pre-emergence activity at 320g/ha and against SETVI in %,[7],100%
same,pre-emergence activity at 1280g/ha and against SETVI in %,[7],100%
same,pre-emergence activity against ECHCG,"[8]; 80 g/ha, Table C6b",90%
same,pre-emergence activity against ECHCG,"[8]; 320 g/ha, Table C6a",100%
same,post-emergence activity at 320g/ha against KCHSC in %,[9],90%
same,post-emergence activity at 1280g/ha against KCHSC in %,[9],90%
same,post-emergence activity against ORYZA,"[10]; 320 g/ha, Table F3a",20%
same,post-emergence activity against GLXMA,"[11]; 80 g/ha, Table F4c",0%
O=C1N(Cc2ccccc2F)CCC12CC(c1c(F)cccc1F)=NO2 (racemic) [Compound I-10],pre-emergence activity against ORYZA,"[1]; 80 g/ha, Table D3b",0%
same,pre-emergence activity against DIGSA,"[2]; 320 g/ha, Table C5a",90%
same,pre-emergence activity at 1280g/ha against ECHCG in %,[3],100%
same,pre-emergence activity at 320g/ha against AMARE in %,[4],80%
same,post-emergence activity against ZEAMX,"[5]; 80 g/ha, Table F1c",0%
same,post-emergence activity against ZEAMX,"[5]; 320 g/ha, Table F1d",0%
same,pre-emergence activity against TRZAS,"[6]; 80 g/ha, Table D2b",0%
same,pre-emergence activity at 320g/ha and against SETVI in %,[7],90%
same,pre-emergence activity at 1280g/ha and against SETVI in %,[7],100%
same,pre-emergence activity against ECHCG,"[8]; 320 g/ha, Table C6a",90%
same,post-emergence activity at 320g/ha against KCHSC in %,[9],90%
same,post-emergence activity at 1280g/ha against KCHSC in %,[9],90%
same,post-emergence activity against ORYZA,"[10]; 320 g/ha, Table F3a",0%
same,post-emergence activity against GLXMA,"[11]; 80 g/ha, Table F4c",0%
"Cc1ccsc1C1=NOC2(CCN(Cc3c(F)cccc3F)C2=O)C1 (racemic) [Compound I-16, 7-(2,6-Difluorobenzyl)-3-(3-methyl-2-thienyl)-1-oxa-2,7-diazaspiro[4.4]non-2-en-6-one]",pre-emergence activity against ORYZA,"[1]; 80 g/ha, Table D3b",0%
same,pre-emergence activity against ORYZA,"[1]; Table D3a, title: 320g/ha, application rate: 80 g/ha",20%
same,pre-emergence activity against DIGSA,"[2]; 320 g/ha, Table C5a",80%
same,pre-emergence activity at 320g/ha against ECHCG in %,[3],100%
same,pre-emergence activity at 1280g/ha against ECHCG in %,[3],100%
same,pre-emergence activity at 320g/ha against AMARE in %,[4],80%
same,post-emergence activity against ZEAMX,"[5]; 80 g/ha, Table F1c",0%
same,post-emergence activity against ZEAMX,"[5]; 320 g/ha, Table F1d",0%
same,pre-emergence activity against TRZAS,"[6]; 80 g/ha, Table D2b",10%
same,pre-emergence activity against TRZAS,"[6]; Table D2a, title: 320g/ha, application rate: 80 g/ha",10%
same,pre-emergence activity at 320g/ha and against SETVI in %,[7],100%
same,pre-emergence activity at 1280g/ha and against SETVI in %,[7],100%
same,pre-emergence activity against ECHCG,"[8]; 320 g/ha, Table C6a",90%
same,post-emergence activity at 1280g/ha against KCHSC in %,[9],90%
same,post-emergence activity against ORYZA,"[10]; 320 g/ha, Table F3a",0%
same,post-emergence activity against ORYZA,"[10]; Table F3b, title: 80g/ha, application rate column: 320 g/ha",0%
same,post-emergence activity against GLXMA,"[11]; 80 g/ha, Table F4c",0%
same,post-emergence activity against GLXMA,"[11]; Table F4d, title: 320 g/ha, application rate: 80 g/ha",0%
